Publication PMC10667535 (Nature Communications, 2023)

What follows are compounds tested against T1, RSp0980 (Ralstonia pseudosolanacearum, UniProt Q8XR79) (assay: biochemical).
T1 construct: gene narL
T1 sequence (Q8XR79 1-222): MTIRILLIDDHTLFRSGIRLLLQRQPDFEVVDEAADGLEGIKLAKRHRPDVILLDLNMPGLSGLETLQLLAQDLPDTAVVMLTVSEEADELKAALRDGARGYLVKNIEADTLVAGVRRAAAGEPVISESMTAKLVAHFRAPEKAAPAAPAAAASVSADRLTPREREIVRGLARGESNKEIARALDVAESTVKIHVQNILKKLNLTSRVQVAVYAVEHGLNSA

| Compound | Kd [µM] |
| --- | --- |
| Nc1nc2c(ncn2[C@@H]2O[C@@H]3COP(=O)(O)O[C@@H]4[C@H](O)[C@@H](COP(=O)(O)O[C@H]3[C@H]2O)O[C@H]4n2cnc3c(=O)[nH]c(N)nc32)c(=O)[nH]1 [2′,3′-c-di-GMP] | 126 ± 1.12 |
| Nc1ncnc2c1ncn2[C@@H]1O[C@H](CO)[C@H]2OP(=O)(O)O[C@H]21 [2′,3′-cAMP] | 82 ± 0.93 |
| Nc1nc2c(ncn2[C@@H]2O[C@@H]3CO[P@](=O)(O)O[C@H]4[C@@H](O)[C@H](n5cnc6c(=O)[nH]c(N)nc65)O[C@@H]4CO[P@](=O)(O)O[C@H]3[C@H]2O)c(=O)[nH]1 [bis-3′,5′-c-di-GMP] | 130.4 ± 1.3 |
